Laboratory results published in patent US20050208549A1, “Testing endosymbiont cellular organelles and compounds identifiable therewith” (priority 2000, published 2005).

What was measured:
[1] = test system: peripheral blood mononuclear cells (PBMCs); experiment: NASBA ratio of mitochondrial RNA to chromosome-encoded RNA in cultured PBMCs; assay type: cell-based, human (healthy blood donor)
Description: (§1) In Table 1, the primers and probes used in the examples are summarized. Standard NASBA nucleic acid amplification reactions were performed in a 20 μl reaction volume and contained: 40 mM Tris-pH 8.5, 70 mM KCl, 12 mM MgCl2, 5 mM dithiothreitol, 1 mM dNTPs (each), 2 mM rNTPs (each), 0.2 μM primer (each), 0.05 μM molecular beacon, 375 mM sorbitol, 0.105 μg/μl bovine serum albumin, 6.4 units AMV RT, 32 units T7 RNA polymerase, 0.08 units RNAse H and input nucleic acid. The complete mixture, except the enzymes, sorbitol and/or bovine serum albumin was, prior to adding the enzyme mixture, heated to 65° C. for two minutes in order to denature any secondary structure in the RNA and to allow the primers to anneal. After cooling the mixture to 41° C., the enzymes were added. The amplification took place at 41° C. for 90 minutes in a fluorimeter (CytoFluor 2000) and the fluorescent signal was measured every minute (using the filter set 530/25 nm and 485/30 nm). For amplification of DNA target sequences, the 65° C. denaturation step was replaced with a 95° C. denaturation step for two to five minutes.
(§2) To achieve quantification, a dilution series of target sequences for a particular primer set was amplified and the time points at which the reactions became positive (the time to positivity, TTP) were plotted against the input amounts of nucleic acid. This way a calibration curve was created that could be used to read TTP values of reactions with unknown amounts of input and deduce the input amount.
Cells (fibroblasts and PBMCs) were cultured under standard conditions in standard media known to persons skilled in the art with the addition of drugs or putative toxic or stimulating compounds as defined in the examples. […] A small aliquot of the isolated nucleic acid was analyzed on an agarose gel and the remainder stored at −80° C. until further analysis. […]

PBMC of patients = experiment: Mitochondrial DNA content per PBMC of HIV-1 infected patients on antiviral therapy (duplex NASBA); assay type: in vivo, human (HIV-1 infected patients); settings: for Mitochondrial DNA content in PBMC (per cell), Median / % decrease in mitochondrial DNA content of PBMC: patients
Description: Different ratios of mitochondrial and chromosomal DNA targets in plasmids were analyzed in this example: 2×10^3 U1a DNA/8×10^3 Mt DNA, 2×10^3 U1a DNA/2×10^4 MtDNA, 2×10^3 U1a DNA/4×10^4 Mt DNA, 2×10^3 U1a DNA/10^5 Mt DNA, 2×10^3 U1a DNA/2×10^5 Mt DNA, 2×10^3 U1a DNA/4×10^5 Mt DNA, and 2×10^3 U1a DNA/8×10^5 Mt DNA molecules were included. A reaction mix was prepared similar to that of Example 12, except that primers and beacons differed in order to amplify chromosomal and mitochondrial DNA in one tube. The reaction mix (duplex-mix) contained two sets of primers and beacons: SnrpD P1 and SnrpD2 P2 (first primer set, each 0.2 μM), and MtD P1—2 and MtD P2—2 (second primer set, each 0.3 μM) with beacons SnrpD mb—2 (FAM-labeled) and MtD mb—3 (ROX-labeled) (each 0.04 μM). See Table 1 for primer and, probe sequences. Restriction enzyme digestion, amplification, and detection were performed as in Example 12. Filter sets of the fluorimeter (CytoFluor 2000 or EasyQ analyzer) were adapted to simultaneously measure the FAM and the ROX-label (485/20 and 530/25 for FAM; 590/20 and 645/40 for ROX). In a duplex reaction with two competing amplifications, the ratio of the slope of the curves of fluorescence in time is proportional to the ratio of the amount of molecules of each amplified species. The relation between the ratio of the slopes of FAM and ROX signal is linear to the ratio of mitochondrial DNA and chromosomal DNA in the input.
Forty-eight HIV-1 infected patients were randomized for antiviral therapy with either AZT, AZT+ddI, or AZT+ddC. Blood was drawn at week 0, 4, 24, and 48 after the start of therapy. The blood was used to prepare peripheral blood mononuclear cells (PBMC) by Ficoll-Isopaque purification. PBMC were viably frozen in medium plus 5% DMSO and stored in liquid nitrogen until use.
Nucleic acids were extracted from 10^5 PBMC using the Boom method. Nucleic acids equivalent of 1,000 PBMC were used as input for the one-tube real-time duplex-NASBA that measures both mitochondrial and chromosomal DNA as described in Example 17. The result of this assay is expressed as the mitochondrial DNA content per cell (i.e., PBMC) of the patient sample.
The mtDNA content of the PBMC of the patients at start of therapy was compared to the mtDNA content at week 4, 24, and 48 and analyzed for statistically significant changes (see Table 3 and FIGS. 20 and 21).

Fibroblast cells = experiment: NASBA ratio of mitochondrial DNA to chromosomal DNA in cultured fibroblast cells; assay type: cell-based; settings: culture period of four weeks, antiviral drugs at 3 μM and 30 μM
Description: as §1, with “For amplification of DNA target sequences, the 65° C. denaturation step was replaced with a 95° C. denaturation step for two to five minutes.” left out
as §2, with “amount. […]” for “amount.”

| Structure (SMILES) | change in ratio of mitochondrial RNA to chromosome-encoded RNA ([1]; culture period of five days, 6 μM and 60 μM) | Mitochondrial DNA content in PBMC (per cell), Median (PBMC of patients; week 0 (start of therapy)) | % decrease in mitochondrial DNA content of PBMC (PBMC of patients; week 4 compared to start of therapy) [%] | Mitochondrial DNA content in PBMC (per cell), Median (PBMC of patients; week 4 of therapy) | % decrease in mitochondrial DNA content of PBMC (PBMC of patients; week 24 compared to start of therapy) [%] | Mitochondrial DNA content in PBMC (per cell), Median (PBMC of patients; week 24 of therapy) | % decrease in mitochondrial DNA content of PBMC (PBMC of patients; week 48 compared to start of therapy) [%] | Mitochondrial DNA content in PBMC (per cell), Median (PBMC of patients; week 48 of therapy) | change in mitochondrial DNA to chromosomal DNA ratio (Fibroblast cells) | decline in PBMCs of mitochondrial RNA per cell ([1]; five-day culture period, highest concentration of ddC used, FIG. 10) | change in the mitochondrial DNA content of patients' PBMC under therapy (PBMC of patients; human, in vivo) |
| --- | --- | --- | --- | --- | --- | --- | --- | --- | --- | --- | --- |
| Cc1cn([C@H]2C[C@H](N=[N+]=[N-])[C@@H](CO)O2)c(=O)[nH]c1=O [AZT] | no measurable change | 196 | 11 | 157 | 1 | 182 | 5 | 155 | no measurable change | – | – |
| Nc1ccn([C@H]2CC[C@@H](CO)O2)c(=O)n1 [ddC] | – | – | – | – | – | – | – | – | – | do not clearly show a decline | significant decline |
